Data taken from US20240091314A1, “USE OF THYMOSIN ALPHA FOR THE TREATMENT OF SEPSIS” (SciClone Pharmaceuticals, Inc., priority 2012, published 2024).

Tests used:
CD4+/CD8+ = assay: ETASS trial: CD4+/CD8+ ratio; format: in vivo, human
Procedure: (§1) In the Tα1 group, patients received subcutaneous injections of 1.6 mg Tα1 (ZADAXIN™, SciClone Pharmaceuticals, Foster City, CA, USA) twice per day for five consecutive days, then once per day for two consecutive days. Prior to administration, the lyophilized powder is to be reconstituted with 1 ml of the provided diluent (sterile water for injection). After reconstitution, the final concentration of Tα1 is 1.6 mg/mL. In the control group, patients received subcutaneous injections of 1 mL normal saline twice per day for five consecutive days, then once per day for two consecutive days. According to trial protocol, therapy had to be started within 4 hrs after enrollment.
(§2) The primary efficacy end point was death from any cause and was assessed 28 days after the initiation of treatment assignment. Secondary outcomes included dynamic changes of Sequential Organ Failure Assessment (SOFA), CD 4+/CD8+ and monocyte human leukocyte antigen-DR (mHLA-DR) expression measured on day 0 (the day of enrollment), 3 and 7 in both groups. All mHLA-DR measurements were done in the center laboratory of the First Affiliated Hospital of Sun Yat-sen University. 1 ml unprocessed EDTA whole blood was stored on ice at once after drawing and was transferred to the center laboratory as soon as possible to guarantee measurement within 3 hrs after blood drawing. The method of measuring mHLA-DR was mentioned in our previous paper. Once patients were enrolled, data including demographic characteristics, microbiological findings (primary infection source and the identified microorganisms) and comorbidities were collected when available. The following clinical parameters were recorded on specific days after enrollment: on day 0, the severity as assessed by the Acute Physiology and Chronic Health Evaluation II (APACHE II); on day 0, 3, 7, SOFA, hematologic and biochemical findings, results of mHLA-DR, CD4+/CD8+ tests. The time of the first organ dysfunction was retrospectively estimated according to objective data such as blood gas analysis when the patient was enrolled.
(§3) Based on a previous study, a sample size of 334 patients was required to show a reduction in 28-day mortality rate from 50% to 35% by Tα1 treatment, with a two-sided test (a error=5%; power=80%). Considering a possible drop-out rate of 10%, the trial would need to enroll 368 patients in total. Demographic data, outcome data and other laboratory parameters were summarized by frequency for categorical variables and mean±standard deviation (SD) or median with interquartile range (IQR) for continuous variables. Proportions were compared with chi-square test or Fisher's exact test. Continuous variables were tested by means of t test with normal distribution or Wilcoxon rank-sum test with non-normal distribution. The comparison of primary outcome between two groups was performed by means of Cochran-Mantel-Haenszel test, in which patients were stratified on a number of baseline covariates such as mHLA-DR, scores of APACHE and SOFA, surgical and cancer history, sex and age. The corresponding relative risks (RRs) with 95% confidence intervals (Cis) were computed with logit-adjusted method. Kaplan-Meier estimates without adjustment for baseline covariates were used for survival time analysis, and log-rank tests for comparison. To estimate mean changes from baseline in laboratory parameters, linear mixed models for repeated measures were employed, taking into account the clustering of participating centers and repeated measurements within patients. This model included terms for baseline measurement, treatment group, visit, and treatment×visit interaction. Least-squares means with 95% CIs were reported. We also analyzed the efficacy parameters of the study drug in different prespecified subgroups. The heterogeneity of treatment effects among subgroups was assessed with use of interaction tests. […]

[1] = test system: patients with severe sepsis; assay: ETASS trial: safety and tolerability assessment; format: in vivo, human; conditions: for drug-related serious/severe adverse events: assessed by the investigator
Procedure: as §1
Safety and tolerability assessment of Tα1 (see Additional file 3) was based on the comparison of all available information obtained from the two groups with respect to detected outliers in laboratory safety data, drug-related serious adverse events (assessed by the investigator) and deterioration of organ and system function (assessed by the individual SOFA component scoring for respiratory, cardiovascular, hepatic, coagulation, renal and nervous systems that arose during the treatment).

[2] = test system: patients with severe sepsis; assay: ETASS multicenter randomized controlled trial: mortality, prognosis and SOFA in severe sepsis; format: in vivo, human
Procedure: We did a prospective, controlled, single-blinded, multi-center randomized clinical trial, which was conducted in the ICUs of six tertiary, teaching hospitals. The ethics committee of the First Affiliated Hospital of Sun Yat-sen University approved the protocol (200815). Written informed consents were obtained from the patients or next of kin for patients unable to consent. The trial was registered with ClinicalTrials.gov, number NCT00711620.
From May 12, 2008 to Dec. 22, 2010 patients diagnosed with severe sepsis admitted to ICUs were enrolled in the trial. The criteria for severe sepsis were a modification of those defined by Bernard et al. (see Additional file 1).
To reduce the impact on the results from heterogeneity of severe sepsis and inter-hospital variation in patient sources as much as possible, stratification by investigative center in combination with computer-generated block randomization (block size=8) according to the sequence of recruitment was employed in the enrollment process. The method of randomization and block size were blinded until the data analysis was finished completely. Clinicians who enrolled the subjects were not involved in data collection. Eligible patients were randomly assigned in a 1:1 ratio in each hospital with four in each block assigned to receive the study drug and the other four to the control group after telephone verification through a randomization center. The allocation sequence was concealed from the researchers. To prevent advance knowledge of treatment assignment and subversion of the allocation sequence, trial entry sheet of the case report form (CRF) was filled out and informed consent was obtained before disclosing the unique participant number and the allocated group; the unique number generated could not be changed and deleted afterward. We used normal saline as placebo. Patients were blinded to the treatment assignments. All statistical analysis was done with masking maintained.
as §1
The treating physicians dictated patient care to current international guidelines, including adequate empiric antibiotic therapy based on current recommendations, ventilation regimen (pressure control mode), blood glucose control, resuscitation and hemodynamic support, organ support, sedation or analgesia as needed and adequate nutrition. Empirical antibiotic therapy was considered adequate when at least one effective drug was included in the empirical antibiotic treatment within the first 24 hrs of the admission to the ICU and the optimal dose and the correct route of administration were in accordance with medical standards and in ICU survivors without microbiologically detected microorganism in bloodstream or focus. When the empirical antibiotic therapy had to be changed after microbiological detection of microorganism, it was considered inadequate, whereas in non-survivors without microbiologically detected microorganism in bloodstream or focus it was considered not evaluable.
The primary efficacy end point was death from any cause and was assessed 28 days after the initiation of treatment assignment. […]

[3] = test system: mHLA-DR (monocyte human leukocyte antigen-DR); assay: ETASS trial: monocyte HLA-DR expression (% of positive monocytes); format: in vivo
Procedure: as §1, §2, §3

[4] = 1.6 mg s.c. twice per day 5 days, then once per day 2 days, n = 181
[5] = during the 28-day study period, n = 181

thymosin alpha 1 [Tα1]
ratio of CD4+/CD8+ during the 7 days (CD4+/CD8+; 7 days): remained unchanged
CD4+/CD8+, Mean (95% CI) (CD4+/CD8+; Day 0 (day of enrollment)): 2.5
CD4+/CD8+, Mean (95% CI) (CD4+/CD8+; Day 3): 2.7
CD4+/CD8+, Mean (95% CI) (CD4+/CD8+; Day 7): 2.5
CD4+/CD8+ ΔDay 3, between groups difference (CD4+/CD8+; Tα1 group vs control group): 0
CD4+/CD8+ ΔDay 7, between groups difference (CD4+/CD8+; Tα1 group vs control group): 0.1
CD4+/CD8+ change ΔDay 3 (CD4+/CD8+; day 3 compared with day 0): 0.3
CD4+/CD8+ change ΔDay 7 (CD4+/CD8+; day 7 compared with day 0): 0.1
drug-related serious/severe adverse events [1]: no Tα1-related severe adverse event (SAE) was reported
drug-related serious/severe adverse events ([1]; listed as Talpha1): No serious drug-related adverse event
drug-related serious/severe adverse events ([1]; listed as Thymosin alpha 1): not observed
patients with impairment (SOFA component score deterioration): Cardiovascular system, frequency in parentheses ([1]; during the treatment, n = 181): (15.5)
patients with impairment (SOFA component score deterioration): Cardiovascular system, number ([1]; during the treatment, n = 181): 28
patients with impairment (SOFA component score deterioration): Coagulation system, frequency in parentheses ([1]; during the treatment, n = 181): (26.5)
patients with impairment (SOFA component score deterioration): Coagulation system, number ([1]; during the treatment, n = 181): 48
patients with impairment (SOFA component score deterioration): Hepatic system, frequency in parentheses ([1]; during the treatment, n = 181): (11.6)
patients with impairment (SOFA component score deterioration): Hepatic system, number ([1]; during the treatment, n = 181): 21
patients with impairment (SOFA component score deterioration): Nervous system, frequency in parentheses ([1]; during the treatment, n = 181): (7.7)
patients with impairment (SOFA component score deterioration): Nervous system, number ([1]; during the treatment, n = 181): 14
patients with impairment (SOFA component score deterioration): Renal system, frequency in parentheses ([1]; during the treatment, n = 181): (14.4)
patients with impairment (SOFA component score deterioration): Renal system, number ([1]; during the treatment, n = 181): 26
patients with impairment (SOFA component score deterioration): Respiratory system, frequency in parentheses ([1]; during the treatment, n = 181): (13.3)
patients with impairment (SOFA component score deterioration): Respiratory system, number ([1]; during the treatment, n = 181): 24
difference vs control in frequency of outlying laboratory values and all-cause organ or system impairment ([1]; in vivo): no statistically significant differences
treatment discontinuation due to intolerance or adverse events ([1]; in vivo): no treatment was discontinued
patients with Hypoglycemia, frequency in parentheses ([1]; n = 181): (4.4)
patients with Hypoglycemia, number ([1]; n = 181): 8
patients with outlying values: ALT (U/L), frequency in parentheses ([1]; n = 181): (21.0)
patients with outlying values: ALT (U/L), number ([1]; n = 181): 38
patients with outlying values: AST (U/L), frequency in parentheses ([1]; n = 181): (23.8)
patients with outlying values: AST (U/L), number ([1]; n = 181): 43
patients with outlying values: Creatinine (mmol/L), frequency in parentheses ([1]; n = 181): (9.9)
patients with outlying values: Creatinine (mmol/L), number ([1]; n = 181): 18
patients with outlying values: Hemoglobin (g/L), frequency in parentheses ([1]; n = 181): (14.9)
patients with outlying values: Hemoglobin (g/L), number ([1]; n = 181): 27
patients with outlying values: Platelets 10^3/mm^3), frequency in parentheses ([1]; n = 181): (37.0)
patients with outlying values: Platelets 10^3/mm^3), number ([1]; n = 181): 67
28-day mortality (death from any cause), number of patients [2, 4]: 47
28-day mortality (death from any cause), rate [2, 4]: 26.0%
28-day mortality (death from any cause), rate ([2]; 1.6 mg s.c. twice per day 5 days, then once per day 2 days, n = 181, listed as Talpha1): 26.0%
28-day mortality (death from any cause), rate ([2]; 1.6 mg s.c. twice per day 5 days, then once per day 2 days, n = 181, listed as TαI): (26.0%)
survival after enrollment vs control group (Kaplan-Meier, log rank) ([2]; 28 days, log rank P=0.049): survived longer
SOFA score, Mean (95% CI) ([2]; Day 0 (day of enrollment)): 7.9
SOFA score, Mean (95% CI) ([2]; Day 3): 6.1
SOFA score, Mean (95% CI) ([2]; Day 7): 5.3
SOFA score ΔDay 3, between groups difference ([2]; Tα1 group vs control group): −0.5
SOFA score ΔDay 7, between groups difference ([2]; Tα1 group vs control group): −0.7
SOFA score change ΔDay 3 ([2]; day 3 compared with day 0): −1.8
SOFA score change ΔDay 7 ([2]; day 7 compared with day 0): −2.5
ICU-free days, Median (95% CI) [2, 5]: 10.0 days
Ventilation-free days, Median (95% CI) [2, 5]: 18.0 days
relative risk of death in hospital compared to the control group ([2]; in vivo): 0.73
Duration of ventilation, Median (IQR) ([2]; n = 181): 7.0
ICU stay, Median (IQR) ([2]; n = 181): 11.0
In-ICU mortality, number of patients ([2]; n = 181): 35
In-ICU mortality, rate ([2]; n = 181): (19.3%)
In-hospital mortality, number of patients ([2]; n = 181): 52
In-hospital mortality, rate ([2]; n = 181): 28.7%
In-hospital mortality, rate ([2]; n = 181, listed as TαI): (28.7%)
relative risk of death, non-cancerous patients ([2]; non-cancerous patients): 0.91
relative risk of death within 28 days as compared to the control group ([2]; non-stratified analysis): 0.74
relative risk of death compared to the control group, subgroup of patients with cancer ([2]; patients with cancer): 0.46
primary end point in prespecified subgroups (APACHE II, SOFA, mHLA-DR, surgery or cancer history, sex, age) ([2]; stratified analyses): tended to improve outcome but without statistical significance
absolute reduction in 28-day mortality ([2]; vs control group): 9.0%
decreasing tendency within 7 days in SOFA score ([2]; vs control group): seemed to favor the Tα1 group
difference between the two groups in ICU mortality, ventilation-free days, ICU-free days, length of ICU stay and duration of mechanical ventilation ([2]; vs control group): no significant difference
mHLA-DR, Mean (95% CI) ([3]; Day 0 (day of enrollment)): 51.8%
mHLA-DR, Mean (95% CI) ([3]; Day 3): 59.8%
mHLA-DR, Mean (95% CI) ([3]; Day 7): 68.9%
mean difference in mHLA-DR changes between the two groups, day 3 ([3]; Tα1 group vs control group): 3.9%
mean difference in mHLA-DR changes between the two groups, day 7 ([3]; Tα1 group vs control group): 5.8%
mHLA-DR mean change from baseline ΔDay 3 ([3]; day 3 compared with day 0): 8.0%
mHLA-DR mean change from baseline ΔDay 7 ([3]; day 7 compared with day 0): 17.0%
